The experiment has as its system CD2F1 mice, L1210 leukemia ip, survival T/C. Briefly: NCI In Vivo Anticancer Drug Screen. Data for tumor model L1210 Leukemia (intraperitoneal) in CD2F1 (CDF1) mice. As to conditions: higher = longer survival. In outline:
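In this screen, transplantable tumors were grown in mice given either the compound or its vehicle. Results were expressed as the treated measurement relative to the control measurement.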

Where [1] appears, read: endpoint: mean survival time, dose: 100.0 mg/kg/injection, schedule: Q01DX009 (ip), vehicle: saline.
Where [2] appears, read: endpoint: mean survival time, dose: 25.0 mg/kg/injection, schedule: Q04DX003 (ip), vehicle: Klucel (hydroxypropylcellulose) (HPC).
Setting [3] is: endpoint: mean survival time, dose: 100.0 mg/kg/injection, schedule: Q04DX003 (ip), vehicle: Klucel (hydroxypropylcellulose) (HPC).
[4] abbreviates: endpoint: mean survival time, dose: 100.0 mg/kg/injection, schedule: Q01DX001 (ip), vehicle: saline with Tween-80.
Where [5] appears, read: endpoint: mean survival time, dose: 200.0 mg/kg/injection, schedule: Q01DX001 (ip), vehicle: saline with Tween-80.
[6] abbreviates: endpoint: mean survival time, dose: 400.0 mg/kg/injection, schedule: Q01DX001 (ip), vehicle: saline with Tween-80.
Setting [7] is: endpoint: mean survival time, dose: 200.0 mg/kg/injection, schedule: Q01DX009 (ip), vehicle: saline.
[8] abbreviates: endpoint: mean survival time, dose: 400.0 mg/kg/injection, schedule: Q01DX009 (ip), vehicle: saline.
The mark [9] stands for this setting: endpoint: mean survival time, dose: 100.0 mg/kg/injection, schedule: Q01DX009 (ip), vehicle: saline with Tween-80.
[10] abbreviates: endpoint: mean survival time, dose: 100.0 mg/kg/injection, schedule: Q04DX003 (ip), vehicle: saline with Tween-80.
Where [11] appears, read: endpoint: mean survival time, dose: 200.0 mg/kg/injection, schedule: Q01DX009 (ip), vehicle: saline with Tween-80.
[12] abbreviates: endpoint: mean survival time, dose: 200.0 mg/kg/injection, schedule: Q04DX003 (ip), vehicle: saline with Tween-80.
Where [13] appears, read: endpoint: mean survival time, dose: 400.0 mg/kg/injection, schedule: Q01DX009 (ip), vehicle: saline with Tween-80.
Setting [14] is: endpoint: mean survival time, dose: 100.0 mg/kg/injection, schedule: Q04DX002 (ip), vehicle: saline with Tween-80.
Where [15] appears, read: endpoint: mean survival time, dose: 200.0 mg/kg/injection, schedule: Q04DX002 (ip), vehicle: saline with Tween-80.

Structures are written as SMILES. Several values for one entry are separate records, joined by “and”; a condition that tells them apart may be missing. Identical values can stand only once. Inconclusive results and toxic doses are left out.

Drawing on PubChem BioAssay AID256 (DTP/NCI, 2004), this text covers T/C for 21 compounds.

Regarding `FC(F)(F)c1nc2nc(Cl)c(Cl)nc2[nH]1`, the T/C by setting is: (endpoint: mean survival time, dose: 10.0 mg/kg/injection, schedule: Q01DX009 (ip), vehicle: saline with Tween-80) 97 % of control; (endpoint: mean survival time, dose: 12.5 mg/kg/injection, schedule: Q01DX009 (ip), vehicle: saline) 102 % of control; (endpoint: mean survival time, dose: 20.0 mg/kg/injection, schedule: Q01DX009 (ip), vehicle: saline with Tween-80) 106 % of control; (endpoint: mean survival time, dose: 25.0 mg/kg/injection, schedule: Q01DX009 (ip), vehicle: saline) 101 % of control; under setting [1], 107 % of control; (endpoint: median survival time, dose: 30.0 mg/kg/injection, schedule: Q04DX003 (ip), vehicle: saline with Tween-80) 106 % of control. Besides, the T/C reads like this: (endpoint: median survival time, dose: 44.0 mg/kg/injection, schedule: Q04DX003 (ip), vehicle: saline with Tween-80) 106 % of control; (endpoint: median survival time, dose: 66.0 mg/kg/injection, schedule: Q04DX003 (ip), vehicle: saline with Tween-80) 110 % of control.

Turning to `CC(O)C(=O)O.CCCCOC(=O)CC(O)(CC(=O)OCCCC)C(=O)OCCCC.[Cl-].[Cl-].[NH2-].[NH2-].[Pt+4]`, the T/C by setting is: (endpoint: mean survival time, dose: 3.13 mg/kg/injection, schedule: Q04DX003 (ip), vehicle: Klucel (hydroxypropylcellulose) (HPC)) 104 % of control and 108 % of control and 105 % of control; (endpoint: mean survival time, dose: 6.25 mg/kg/injection, schedule: Q04DX003 (ip), vehicle: Klucel (hydroxypropylcellulose) (HPC)) 108 % of control and 111 % of control and 98 % of control; (endpoint: mean survival time, dose: 12.5 mg/kg/injection, schedule: Q04DX003 (ip), vehicle: Klucel (hydroxypropylcellulose) (HPC)) 109 % of control [middle of 4 runs]; under setting [2], 96 % of control and 113 % of control and 104 % of control; under setting [3], 95 % of control; (endpoint: mean survival time, dose: 200.0 mg/kg/injection, schedule: Q04DX003 (ip), vehicle: Klucel (hydroxypropylcellulose) (HPC)) 113 % of control.

Turning to `C/C(=N/Nc1ccc([N+](=O)[O-])cc1[N+](=O)[O-])C1CC2CCC1C2` (configuration not stated), the T/C is, setting by setting: under setting [4], 100 % of control; under setting [5], 96 % of control; under setting [6], 96 % of control.

In the case of `COC(=O)c1ccncc1`, the T/C by setting is: under setting [1], 102 % of control; under setting [7], 108 % of control; under setting [8], 100 % of control.

With `CCCCC1=C(P(=O)(OCC)OCC)C(F)(F)C(F)(F)C1(F)F`, the T/C by setting is: (endpoint: mean survival time, dose: 75.0 mg/kg/injection, schedule: Q01DX001 (ip), vehicle: other) 98 % of control; (endpoint: mean survival time, dose: 150.0 mg/kg/injection, schedule: Q01DX001 (ip), vehicle: other) 86 % of control; (endpoint: mean survival time, dose: 300.0 mg/kg/injection, schedule: Q01DX001 (ip), vehicle: other) 100 % of control.

For the compound `OCC1OC(n2cnc3c(SSc4ncnc5c4ncn5C4OC(CO)C(O)C4O)ncnc32)C(O)C1O` (configuration not stated), the T/C was 115 % of control (endpoint: mean survival time, dose: 178.0 mg/kg/injection, schedule: Q01DX009 (ip), vehicle: saline) and 150 % of control under setting [8].

As for `Nc1nc(Nc2ccccc2)c2ncn(C3OC(CO)C(O)C3O)c2n1` (configuration not stated), the T/C (endpoint: mean survival time, dose: 6.25 mg/kg/injection, schedule: Q01DX005 (ip), vehicle: distilled water + Tween-80) is 98 % of control; the T/C (endpoint: mean survival time, dose: 12.5 mg/kg/injection, schedule: Q01DX005 (ip), vehicle: distilled water + Tween-80) is 98 % of control; the T/C (endpoint: mean survival time, dose: 25.0 mg/kg/injection, schedule: Q01DX005 (ip), vehicle: distilled water + Tween-80) was 102 % of control; the T/C (endpoint: mean survival time, dose: 50.0 mg/kg/injection, schedule: Q01DX005 (ip), vehicle: distilled water + Tween-80) is 101 % of control; the T/C (endpoint: mean survival time, dose: 100.0 mg/kg/injection, schedule: Q01DX005 (ip), vehicle: distilled water + Tween-80) was 98 % of control.

`CSc1nc(NC2OC(CO)C(O)C(O)C2O)c(I)c(=O)n1C` (configuration not stated): the T/C reads like this: (endpoint: median survival time, dose: 12.5 mg/kg/injection, schedule: Q01DX005 (ip), vehicle: saline with Tween-80) 100 % of control; (endpoint: median survival time, dose: 25.0 mg/kg/injection, schedule: Q01DX005 (ip), vehicle: saline with Tween-80) 100 % of control; (endpoint: median survival time, dose: 50.0 mg/kg/injection, schedule: Q01DX005 (ip), vehicle: saline with Tween-80) 103 % of control; (endpoint: median survival time, dose: 100.0 mg/kg/injection, schedule: Q01DX005 (ip), vehicle: saline with Tween-80) 107 % of control; (endpoint: median survival time, dose: 200.0 mg/kg/injection, schedule: Q01DX005 (ip), vehicle: saline with Tween-80) 119 % of control.

Regarding `COC(=O)C1=C(NC(=O)Nc2ccc(OC)cc2)OC(C)(C)C1c1ccc(Cl)cc1` (configuration not stated), the T/C by setting is: under setting [9], 93 % of control; under setting [10], 92 % of control; under setting [11], 93 % of control; under setting [12], 87 % of control; under setting [13], 94 % of control; (endpoint: mean survival time, dose: 400.0 mg/kg/injection, schedule: Q04DX003 (ip), vehicle: saline with Tween-80) 92 % of control.

Consider `CC(=O)Nc1ncnc2c1ncn2C1OC(COC(C)=O)C(NC(=O)C(F)(F)F)C1OC(C)=O` (configuration not stated), for which the T/C is 109 % of control (endpoint: median survival time, dose: 12.5 mg/kg/injection, schedule: Q01DX005 (ip), vehicle: alkali diluted with saline); 102 % of control (endpoint: median survival time, dose: 25.0 mg/kg/injection, schedule: Q01DX005 (ip), vehicle: alkali diluted with saline); 109 % of control (endpoint: median survival time, dose: 50.0 mg/kg/injection, schedule: Q01DX005 (ip), vehicle: alkali diluted with saline); 107 % of control (endpoint: median survival time, dose: 100.0 mg/kg/injection, schedule: Q01DX005 (ip), vehicle: alkali diluted with saline); 106 % of control (endpoint: median survival time, dose: 200.0 mg/kg/injection, schedule: Q01DX005 (ip), vehicle: alkali diluted with saline).

With `O=Nc1ccc(O)cc1`, the T/C reads like this: (endpoint: mean survival time, dose: 50.0 mg/kg/injection, schedule: Q04DX003 (ip), vehicle: saline with Tween-80) 100 % of control; under setting [10], 105 % of control and 107 % of control; under setting [12], 95 % of control and 111 % of control.

Consider `CCOC(=O)/C=C(\C)CO`, for which the T/C under setting [14] is 88 % of control; the T/C under setting [15] is 103 % of control; the T/C (endpoint: mean survival time, dose: 400.0 mg/kg/injection, schedule: Q04DX002 (ip), vehicle: saline with Tween-80) was 103 % of control.

`O=C(OC1CC2CCC1C2Cl)c1ccc2ccccc2c1` (configuration not stated): the T/C under setting [4] was 93 % of control; the T/C under setting [9] was 91 % of control; the T/C under setting [5] is 89 % of control; the T/C under setting [11] is 93 % of control; the T/C under setting [6] is 95 % of control; the T/C under setting [13] is 95 % of control.

In the case of `CCOC(=O)/C=C\C1=CCCC1`, the T/C (endpoint: mean survival time, dose: 50.0 mg/kg/injection, schedule: Q01DX009 (ip), vehicle: saline) is 102 % of control; the T/C under setting [1] was 98 % of control; the T/C under setting [7] is 102 % of control.

For the compound `O=C1c2c(O)ccc(Cl)c2C(=O)c2c(O)ccc(Cl)c21`, the T/C reads like this: under setting [9], 95 % of control; under setting [11], 93 % of control; under setting [13], 97 % of control.

With `O=C(O)CC1(c2ccccc2)OC(=O)c2ccccc21` (configuration not stated), the T/C reads like this: under setting [4], 91 % of control; under setting [9], 96 % of control; under setting [5], 94 % of control; under setting [11], 100 % of control; under setting [6], 89 % of control.

`CN(C(=O)c1c(Cl)n(C)c2ccccc12)c1ccccc1`: the T/C runs as follows: under setting [2], 98 % of control; (endpoint: mean survival time, dose: 50.0 mg/kg/injection, schedule: Q04DX003 (ip), vehicle: Klucel (hydroxypropylcellulose) (HPC)) 101 % of control; under setting [3], 104 % of control.

Regarding `CCCCC1(C(=O)OCC)SCCCS1`, the T/C runs as follows: (endpoint: mean survival time, dose: 50.0 mg/kg/injection, schedule: Q04DX002 (ip), vehicle: saline with Tween-80) 94 % of control; under setting [14], 105 % of control; under setting [15], 97 % of control.

In the case of `CC1(C2CC(=O)OC2=O)OCCO1` (configuration not stated), the T/C runs as follows: (endpoint: mean survival time, dose: 50.0 mg/kg/injection, schedule: Q01DX001 (ip), vehicle: saline) 96 % of control; (endpoint: mean survival time, dose: 100.0 mg/kg/injection, schedule: Q01DX001 (ip), vehicle: saline) 102 % of control; (endpoint: mean survival time, dose: 200.0 mg/kg/injection, schedule: Q01DX001 (ip), vehicle: saline) 93 % of control.

As to `Cc1oc2ccc(NS(=O)(=O)c3ccccc3)cc2c1C(=O)O`, the T/C under setting [10] is 97 % of control.

Regarding `COC(=O)Nc1cccc(OC(=O)N(C)C)c1`, the T/C is, setting by setting: under setting [9], 97 % of control; under setting [11], 97 % of control; under setting [13], 96 % of control.
